Data reported in patent US12023308B2, “Agents for reversing toxic proteinopathies” (THE BROAD INSTITUTE, INC., priority 2019, dated 2024).
Like-named read-outs stand apart in the source and are kept apart here.

How the values were obtained:
MUC1-fs [1] = assay: MUC1-fs immunofluorescence high-content imaging assay in P cells; assay type: cell-based, human
Experimental: Cells grown on CellCarrier-96 or -384 well Ultra microplates (PerkinElmer) were fixed 10 min in PBS containing 4% PFA (Electron Microscopy Sciences), permeabilized 15 min in 0.5% Triton X100 (X100-100ML, Sigma-Aldrich), blocked for 1 hr in blocking reagent (100 mM Tris HCL pH8; 150 mM NaCL; 5 g/L Blocking Reagent [11096176001, Roche]) and treated for 1 hr with primary antibodies diluted in blocking reagent (1:500, monoclonal Fab-A-VSH anti-fsMUC1, AbD22655.2, Bio-Rad; 1:2000, monoclonal Mouse anti-MUC1 (CD227), 60137, Stemcell Technologies; 1:200, polyclonal, Mouse anti-GM130, ab169276, Abcam; 1:100, polyclonal, Rabbit anti-TMED9, 216201-AP, Proteintech; 1:800, polyclonal, Rabbit anti-SEC31A, 17913-1-AP, Proteintech; 1:400, monoclonal, Rabbit anti-EEA1 (C45B10), 3288S, Cell signaling technology; 1:100, polyclonal, Rabbit anti-ERGIC-53, E1031, Sigma-Aldrich; 1:400, monoclonal, Mouse anti-LAMP1 (D401S), 15665, Cell signaling technology; 1:1000, polyclonal, Rabbit anti-Calnexin, ab22595, Abcam; 1:2000, monoclonal, Rabbit anti-GM130 (D6B1) XP, 12480, Cell signaling technology; 1:200, monoclonal, Rabbit anti TNG46, ab50595, Abcam; 1:100, monoclonal, Rabbit anti-Rab7 (D95F2) XP, 9367, Cell signaling technology; 1:100, monoclonal, Rabbit anti-Rab11 (D4F5) XP, 5589, Cell signaling technology). Fixed, stained cells were washed three times in PBS and incubated for 1 hr with secondary antibodies in blocking solution (1:500, Alexa Fluor 488® Goat anti-Mouse IgG, A-11029, Thermo Fisher Scientific®; 1:500, Alexa Fluor 647® F(ab′)2-Goat anti-Rabbit IgG, A21246, Thermo Fisher Scientific®; 1:2000, Hoechst 33342, H3570, Thermo Fisher Scientific®), then washed three times in PBS and imaged.
Cell nuclei were first identified using Hoechst staining, and cell number was calculated. Cytoplasmic regions were then detected around each nucleus based on combined channels. The cells from the edge of the field were eliminated from the analysis. For the quantification of protein abundance, the total signal intensity value for each antibody was calculated separately in the cell cytoplasm and the average signal per cell was calculated for each well.
P cells were seeded 24 hr prior to compound treatment at a density of 12,000 cells/well in 384 well Cell Carrier Ultra plates (6057308, Perkin Elmer), pre-coated with 0.25 mg/mL Synthemax II SC Substrate (3535, Corning). Compounds of the repurposing library set (Corsello et al., 2017) were used at 5 doses (35, 3.5, 0.35, 0.035 and 0.0035 μM) for the primary screen and 10 doses (16, 5.6, 1.8, 0.6, 0.21, 0.07, 0.02, 0.008, 0.002 and 0.0008 μM) for the following screens. The compounds, in two replicates, were transferred from compound source plates to the cell plates using the HighRes Pin Tool. […] After 48 hr incubation, cells were fixed for 20 min in 4% PFA (Electron Microscopy Sciences) in PBS, washed twice, then permeabilized (10 min) with 0.5% Triton-X100 (X100-100ML, Sigma-Aldrich) in PBS and washed once more. Cells were blocked for 10 min at RT with Blocking solution (100 mM Tris HCL pH8; 150 mM NaCL; 5 g/L Blocking Reagent [11096176001, Roche]), then incubated 90 min at RT with one of the following primary antibodies in Roche Blocking solution: 1:500, monoclonal Fab-A-VSH anti-MUC1-fs, AbD22655.2, Bio-Rad; 1:2000, monoclonal mouse anti-MUC1 (214D4), 05-652-KC, Millipore; 1:1000, monoclonal, Rabbit anti-GM130 (D6B1) XP, 12480, Cell signaling technology. […]

[2] = Dose response exposure PK study in male 129-ELITE mice; assay type: in vivo, mouse; settings: single p.o. doses
Experimental: 4) A pharmacokinetic study was performed by Charles River Labs (CRL) (Worcester, Mass., USA) in fed male 129-ELITE mice (study EF-0024-DA-MI) to determine the dose response exposure of BRD-4780, BRD-1365 and BRD-7709 in plasma, kidney, liver and eye. Brain exposure to BRD-4780 at 30 mg/kg was also evaluated A single dose of BRD-4780 was administered at 30.0 mg/kg or 100 mg/kg orally (p.o) in a clear solution of 5% dextrose in water (D5W). For BRD-1365 and BRD-7709, a single dose of either compound was administered at 10.0 mg/kg, 30.0 mg/kg, 50.0 mg/kg or 100 mg/kg orally (p.o) in a clear solution of 5% dextrose in water (D5W). Blood, kidney, liver and eye tissue were collected from n=3 mice per dose group at six time points post p.o. dose administration (1, 2, 6, 10, 16 and 24 hours) with all three compounds. Brain tissue was collected from n=3 mice per dose group at six time points post p.o. dose administration (1, 2, 6, 10, 16 and 24 hours) with BRD-4780 at 30 mg/kg. Plasma obtained by centrifugation and tissue fragments were homogenized. Plasma and tissue drug concentration was determined by LC-MS/MS and reported as drug concentration in ng/mL for plasma and ng/mg for kidney, liver and eye tissue, plotted as the mean±standard deviation concentration for males for BRD-4780 ([…]), BRD-1365 (FIG. 11K) and BRD-7709 (FIG. 11M). Standard pharmacokinetic parameters were calculated for males for BRD-4780 ([…]), BRD-1365 (FIG. 11O) and BRD-7709 (FIG. 11P).

MUC1-fs [3] = assay: MUC1-fs subcellular distribution (co-localization IF) in P cells; assay type: cell-based, human
Experimental: Cell nuclei were first identified using Hoechst staining, and cell number was calculated. Cytoplasmic regions were then detected around each nucleus based on combined channels. The cells from the edge of the field were eliminated from the analysis. For the quantification of protein abundance, the total signal intensity value for each antibody was calculated separately in the cell cytoplasm and the average signal per cell was calculated for each well. For quantitation of MUC1-fs cellular distribution and trafficking, the analysis was performed as described in FIG. 13A using the “spot” identification feature for the detection of MUC1-fs and the different organelles.
Detection of MUC1-fs in P cells at baseline and following secretory pathway perturbations was performed using immunoblot and IF analyses. […] For IF experiments (FIGS. 5B-5D and 13A-13C), P cells were plated in 384-well plates at 12,000 cells/well.

MUC1-fs [4] = assay: Immunoblot analysis of MUC1-fs in P cells under pathway perturbations; assay type: cell-based, human; settings: for effect on BRD-4780-mediated MUC1-fs clearance (immunoblot): with BRD-4780 (5 μM)
Text: Cells were lysed in lysing buffer solution (9803, Cell Signaling Technology) containing protease inhibitors (05892791001, Roche) and phosphatase inhibitors (04906837001, Roche). […] To normalize protein concentration, proteins in the supernatant of cells or of kidney lysates were quantified using the Pierce BCA Protein Assay Kit (23225, Thermo Fisher Scientific®). Normalized protein lysates were then mixed with NuPAGE LDS sample buffer (NP0008, Thermo Scientific) and NuPAGE reducing agent (NP0004, Thermo Scientific) and heated to 75° C. for 10 min prior to SDS-PAGE gel electrophoresis using NuPAGE Tris-Acetate SDS Running Buffer (LA0041, Thermo Scientific) or NuPAGE MES SDS running buffer (NP0002, Thermo Fisher Scientific®) depending on protein molecular weight of interest. Electrophoretically separated proteins were transferred to a nitrocellulose membrane (1704158, BioRad) using Trans-Blot® Turbo™ Blotting System (1704155, BioRad) following manufacturer's protocol. Membranes were blocked in 5% Nonfat Dry Milk (9999S, Cell Signaling Technology) in PBS with 0.1% Tween® 20 (PBS-T), and probed with primary antibody overnight at 4° C. Following three washes with PBS-T, the membranes were incubated with secondary antibody for 1 hr at room temperature, washed three more times in PBS-T, and incubated with Super Signal West Dura (34076, Thermo Fisher Scientific®) or Super Signal West Pico (34087, Thermo Fisher Scientific®) and immunoreactive bands were imaged by G:BOX Chemi XT4 (G:BOX-CHEMI-XT4, Syngene).
Detection of MUC1-fs in P cells at baseline and following secretory pathway perturbations was performed using immunoblot and IF analyses. For immunoblot experiments (FIGS. 5E and 13D), P cells were grown in 6-well plates to high confluence. For IF experiments (FIGS. 5B-5D and 13A-13C), P cells were plated in 384-well plates at 12,000 cells/well. Following 24 hr, cells were treated with 5 μM BRD-4780 or DMSO alone, or in combination with 100 nM Bafilomycin A (B1793, Sigma-Aldrich), or 200 ng/mL Brefeldin A (B7651, Sigma-Aldrich) for a maximum period of 24 hr as indicated. For TMED9 or Nischarin depletion experiments, transduced/transfected P cells were plated either in 96-well plates at 60,000 cells/well for IF (FIGS. 6C, 6D and 14B), or grown in 6-well plates to high confluence for immunoblot detection (FIGS. 6B and 14C). Cells were then treated with 5 μM BRD-4780 or DMSO for 24 hr (for IF detection) or 72 hr (for immunoblot analysis) and were processed accordingly.

IRE = assay: RT-PCR analysis of XBP1 splicing in THP-treated P cells; assay type: cell-based, human; settings: P cells treated with THP (100 nM)
Experimental: XBP1 splicing was analyzed by standard RT-PCR. Briefly, RNA was isolated from patient cells using a RNeasy Mini Kit (74106, Qiagen). One μg of RNA was converted to cDNA using the SuperScript First-Strand Synthesis system for RT-PCR (11904-018, Invitrogen). The primer sequences used are as follows: Human XBP1 Forward Primer: 5′ TTACGAGAGAAAACTCATGGCC 3′ (SEQ ID NO: 12). Human XBP1 Reverse Primer: 5′ GGGTCCAAGTTGTCCAGAATGC 3′ (SEQ ID NO: 13). PCR was carried out on 3 μL of the resulting cDNA solution using the OneTaq Hot Start Master Mix (M0484S, NEB). Five μL of PCR product was run on a 2% agarose gel for 90 min at 150 V.

PERK = assay: Immunoblot of eIF2a phosphorylation in P cells; assay type: cell-based, human
Experimental: (§1) Cells were lysed in lysing buffer solution (9803, Cell Signaling Technology) containing protease inhibitors (05892791001, Roche) and phosphatase inhibitors (04906837001, Roche). Mouse kidney tissues were lysed by tissue homogenizer (Tissue-Tearo™, BioSpec Products) in lysing buffer solution containing inhibitors as above, followed by 20 min rocking at 4° C. and centrifugation at 16,000 g, 4° C. for 5 min. To normalize protein concentration, proteins in the supernatant of cells or of kidney lysates were quantified using the Pierce BCA Protein Assay Kit (23225, Thermo Fisher Scientific®). Normalized protein lysates were then mixed with NuPAGE LDS sample buffer (NP0008, Thermo Scientific) and NuPAGE reducing agent (NP0004, Thermo Scientific) and heated to 75° C. for 10 min prior to SDS-PAGE gel electrophoresis using NuPAGE Tris-Acetate SDS Running Buffer (LA0041, Thermo Scientific) or NuPAGE MES SDS running buffer (NP0002, Thermo Fisher Scientific®) depending on protein molecular weight of interest. Electrophoretically separated proteins were transferred to a nitrocellulose membrane (1704158, BioRad) using Trans-Blot® Turbo™ Blotting System (1704155, BioRad) following manufacturer's protocol. Membranes were blocked in 5% Nonfat Dry Milk (9999S, Cell Signaling Technology) in PBS with 0.1% Tween® 20 (PBS-T), and probed with primary antibody overnight at 4° C. […]

total MUC1 mRNA = assay: MUC1 transcription assay (RT-PCR profiling screen) in P cells; assay type: cell-based, human; settings: preliminary in vitro experiments in P cells
Experimental: qPCR was performed using a previously described protocol (Bittker, 2012). P cells seeded at 2000 cells/well in 384-well, clear bottom, white wall plates were grown for 24 hr, then treated with profiling compounds transferred by pinning to duplicate plates. JQ1 (250 nM) and DMSO were used for controls as above. After 24 hr, cells were washed and cDNAs were made using ABI Cells-to-Ct kit (Thermo Fisher Scientific®, Waltham, Mass.). MUC1 and HMBS delta Cp values were determined using a Roche LightCycler 480 Instrument and TaqMan probes for MUC1 FAM (4351368 assay ID Hs00159357_m1) and HMBS VIC (4448486-assay ID Hs00609297_m1) (Thermo Fisher Scientific®, Waltham, Mass.), in 5 μL reactions. The fold change effect of the compounds on total MUC1 mRNA was normalized to JQ1 and DMSO controls, as described above.

P cells [5] = assay: THP-induced apoptosis (caspase 3/7) in N and P cells; assay type: cell-based, human; settings: P cells compared to N cells, 72 hour
Experimental: To study apoptosis and cell death in N and P cells, 384 well Cell Carrier Ultra plates (6057308, Perkin Elmer), pre-coated with 0.25 mg/mL Synthemax II SC Substrate (3535, Corning) were used. […] CellEvent Caspase-3/7 Green Detection Reagent (C10423, Thermo Fisher Scientific®) and DRAQ7 (DR71000, Biostatus) were used at 1:5000 to monitor apoptosis and cell death respectively. Cells were imaged daily during 4 days to monitor viability and image analysis was performed as described below. For rescue experiments, P cells were plated on 96 well Cell Carrier Ultra microplates (6055302, Perkin Elmer) at 30,000 cells/well and cultured for 24 hr. […]
Caspase 3/7 activation and/or DRAQ7 staining were used to calculate the fraction of cells going through apoptosis and/or cell death, respectively. Single cells were first identified using the digital phase contrast channel and cell number was calculated. Fluorescence intensities were then measured and the threshold for Caspase 3/7 and DRAQ7 positive staining was determined. As an output, the fraction of live (neither caspase3/7 nor DRAQ7 signal detected), apoptotic (caspase3/7 positive) or dead cells (DRAQ7 positive) was calculated in each well at a particular time point.
Cell viability was determined using caspase activation as described above.

P cells [6] = assay: P cell viability upon THP treatment (live imaging, rescue); assay type: cell-based, human; settings: Homo sapiens; DMSO pre-treatment, 5 days THP
Experimental: To study apoptosis and cell death in N and P cells, 384 well Cell Carrier Ultra plates (6057308, Perkin Elmer), pre-coated with 0.25 mg/mL Synthemax II SC Substrate (3535, Corning) were used. […] CellEvent Caspase-3/7 Green Detection Reagent (C10423, Thermo Fisher Scientific®) and DRAQ7 (DR71000, Biostatus) were used at 1:5000 to monitor apoptosis and cell death respectively. Cells were imaged daily during 4 days to monitor viability and image analysis was performed as described below. For rescue experiments, P cells were plated on 96 well Cell Carrier Ultra microplates (6055302, Perkin Elmer) at 30,000 cells/well and cultured for 24 hr. BRD-4780 (5 μM) was applied as a pretreatment for 48 hr prior to thapsigargin exposure and throughout the experiment. Thapsigargin was applied at increasing doses and the plates were imaged daily thereafter.
For the measurement of P cell rescue from THP-induced cell death by BRD-4780 (FIGS. 3I and 3J), no dyes were added to avoid any influence on cell growth. Digital phase contrast images were used for cell identification and count, and autofluorescence in the far-red channel was used for detection of dead cells. Cells with no autofluorescence were identified and calculated as live cell.
P cells were seeded 12 hr prior to profiling compound treatment at a density of 12,000 cells/well in 384 well Cell Carrier Ultra plates (6057308, Perkin Elmer), pre-coated with 0.25 mg/mL Synthemax II SC Substrate (3535, Corning). After 24 hr, CellEvent Caspase-3/7 Green Detection Reagent (C10423, Thermo Fisher Scientific®) and DRAQ7 (DR71000, Biostatus) were added at 1:5000 final dilution in the presence or absence of thapsigargin (100 nM). Cells were imaged daily during 7 days to monitor viability. Image acquisition and analysis was done as described above and viability was assessed as fraction of live cells at day 5 of thapsigargin treatment, and at the day 6 for DMSO.

ATF6 = assay: Immunoblot of BiP in THP-treated P cells; assay type: cell-based, human; settings: P cells treated with THP (100 nM)
Experimental: as §1

CC(C)[C@H]1[C@@H]2CC[C@@H](C2)[C@@H]1N (single isomer, unassigned) [BRD-1365]
FS MUC1 cytoplasm EMax (MUC1-fs [1]; high-content imaging assay): −39% | IC50 (MUC1-fs [1]; read-out: FS MUC1 cytoplasm IC50; high-content imaging assay): 730 nM | dose proportionality of AUC exposures [2]: not dose proportional

CC(C)[C@@H]1[C@H]2CC[C@H](C2)[C@H]1N (single isomer, unassigned) [BRD-7709]
FS MUC1 cytoplasm EMax (MUC1-fs [1]; high-content imaging assay): −39% | IC50 (MUC1-fs [1]; high-content imaging assay; read-out: FS MUC1 cytoplasm IC50): 660 nM | dose proportionality of AUC exposures [2]: nearly dose proportional

C[C@H]1CCC/C=C/[C@@H]2C[C@H](O)C[C@H]2[C@H](O)/C=C/C(=O)O1 [BFA, Brefeldin A]
MUC1-fs subcellular distribution (MUC1-fs [3]): MUC1-fs accumulation in the ER | effect on BRD-4780-mediated MUC1-fs clearance (immunoblot) (MUC1-fs [4]): abrogated the effect of BRD-4780 on MUC1-fs clearance

CO/C1=C\C(C)=C\[C@@H](C)[C@@H](O)[C@@H](C)C/C(C)=C/C=C/[C@H](OC)[C@@H]([C@@H](C)[C@@H](O)[C@H](C)[C@@]2(O)C[C@@H](O)[C@H](C)[C@@H](C(C)C)O2)OC1=O [Bafilomycin A]
MUC1-fs subcellular distribution (MUC1-fs [3]): accumulation of MUC1-fs in the late secretory pathway | effect on BRD-4780-mediated MUC1-fs clearance (immunoblot) (MUC1-fs [4]): prevented BRD-4780 from clearing mutant MUC1-fs

CC(C)C[C@H](NC(=O)[C@H](Cc1ccccc1)NC(=O)c1cnccn1)B(O)O [Bortezomib]
effect on BRD-4780-mediated MUC1-fs clearance (immunoblot) (MUC1-fs [4]): did not affect MUC1-fs removal by BRD-4780

Cc1cc(=O)oc2c(C=O)c(O)ccc12 [Compound 4μ8c]
IRE activation (XBP1 splicing) (IRE): dose-dependent inhibition of XBP1 splicing

Cc1cccc(CC(=O)N2CCc3c2ccc(-c2cn(C)c4ncnc(N)c24)c3F)n1 [GSK2656157]
PERK activation (eIF2a phosphorylation) (PERK): dose-dependent reduction of eIF2a phosphorylation

Cc1sc2c(c1C)C(c1ccc(Cl)cc1)=N[C@@H](CC(=O)OC(C)(C)C)c1nnc(C)n1-2 [JQ1, reference compound]
transcriptional suppression of both MUC1-fs and MUC1-wt (total MUC1 mRNA): 100%

C/C=C(/C)C(=O)O[C@H]1C(C)=C2[C@H]([C@@H]1OC(=O)CCCCCCC)[C@@](C)(OC(C)=O)C[C@H](OC(=O)CCC)[C@@]1(O)[C@H]2OC(=O)[C@@]1(C)O [THP, thapsigargin, reference compound]
susceptibility of P cells to THP-induced apoptosis (P cells [5]): higher susceptibility to apoptosis compared to N cells | EC50 (P cells [6]): 17 nM

PF-429242
MUC1-fs abundance (immunoblot) (MUC1-fs [4]; 10 μM, 24 hours): MUC1-fs accumulation | ATF6 activation (BiP abundance) (ATF6): dose-dependent reduction of BiP abundance
